Experimental data from patent US20150157023A1, “S[…] CONTROL FROM COMBINATIONS OF 2,4-D-CHOLINE AND GLUFOSINATE” (Dow AgroSciences LLC, priority 2013, published 2015).
Counter-ions that a name gives are not always drawn.

Test system: AAD12 Soybean (GLXMA)
Experiment: Field crop tolerance trials (% visual injury, chlorosis, growth inhibition)
Experimental: These trials were conducted under field conditions in multiple states in the United States, including but not limited to Arkansas, Illinois, Indiana, Minnesota, Mississippi, Nebraska, Ohio, Oklahoma, Texas, South Carolina and South Dakota. […] Treatments were applied with small plot backpack sprayers, using pressurized air or carbon dioxide (CO2) as propellant. Pressure varied from 22-50 pounds per square inch (psi), with spray tips typically of a Flat Fan type applying water diluent at 15 gallons per acre (GPA). Boom sizes varied from 6.3-10 ft in width. Treatments were applied to soybean, cotton, corn or fallow crop land. Weed sizes varied, but all treatments were applied as post-emergence treatments to weeds from 2 leaf to 2 tiller growth stages varying from 2 to 15 inches in height. The weed spectrum included, but was not limited to, Amaranthus palmeri S. Wats. (Palmer amaranth, AMAPA), Conyza canadensis (L.) Cronq. (horseweed, ERICA), Salsola tragus L. (Russian thistle, SASKR) and Sesbania exaltata (hemp sesbania, SEBEX).
2,4-D- and glufosinate-tolerant soybeans, corn and cotton and optionally a glyphosate trait in a breeding (CP4 EPSPS) or a molecular stack (2mEPSPS) were used in all tolerance trials.
The 2,4-D-choline salt formulation was a 456 g ae/L SL. […] All treatments were mixed in water at appropriate formulated product rates to achieve the desired rates as shown based on a unit area of application (hectare). Treatments were rated at 2 to 28 days after application (DAA) as compared to the untreated control plants. The trial sites had naturally occurring populations of weeds. The treated plots and control plots were rated blind at various intervals after application. […]

**Q.** Which results are given for `O=C(O)COc1ccc(Cl)cc1Cl` [2,4-D-Choline salt, 2-hydroxy-N,N,N-trimethylethanaminium 2-(2,4-dichlorophenoxy)acetate]?
**A.** Mean % crop growth inhibition (7DAA, 2130 g ae/ha): 1%; Mean % crop growth inhibition (14DAA, 2130 g ae/ha): 0%; Mean % crop growth inhibition (15DAA, 2130 g ae/ha): 0%

**Q.** How did the “Mean % crop growth inhibition” value (7DAA, 1084 g ae/ha) turn out when `CP(=O)(O)CCC(N)C(=O)O` (centres unmarked) [Glufosinate-ammonium, ammonium (3-amino-3-carboxypropyl)(methyl)phosphinate] was run?
**A.** 14.0%

**Q.** What about the “Mean % crop growth inhibition” value (15DAA, 1084 g ae/ha) of the same compound?
**A.** 9.8%
